Data: patent US20260207560A1, “PLURALITY OF GRANULES” (priority 2022, published 2026)
“And” between values parts separate entries of the source, which are not always exact repeats. Equal values may be shown once.

Assay: Stability of active ingredient in volatile solvents, 20-28 hours at ambient (UPLC assay and impurities)
Conditions: for Assay (as % of nominal): vial replicates
Procedure: Note the incubation for the stability studies were all performed in a similar way: • All were put into 4 mL amber glass vials. • The Initial samples were not analysed as soon as sampled but instead were frozen at −20° C. until the point of analysing the incubated samples (e.g after 28 days at 25, 40 or 50° C.) to avoid degradation of the active ingredient.
Chemical stability was determined by assay (results in Table 8) and quantification of potential active ingredient related substances (shown in
Table 9). […] The objective was to establish whether any active ingredient-related substances might be increasing as a result of the ambient hold.

[1] = 0.1 M HCl, 24 hour, listed as active ingredient
[2] = 0.1 M HCl, Initial, listed as active ingredient
[3] = 5% SLS aq., 24 hour, listed as active ingredient
[4] = 5% SLS aq., Initial, listed as active ingredient

SMILES: CCS(=O)(=O)Nc1ccc2c(c1)nc(C(C)(C)C)n2CC1CCC(F)(F)CC1 [Compound I, N-(2-(tert-butyl)-1-((4,4-difluorocyclohexyl)methyl)-1H-benzimidazol-5-yl)ethanesulfonamide]
- Impurity peak area, RRT 0.38 (0.1 M HCl, 24 hour): 0.07 % of Total
- Impurity peak area, RRT 0.61 (0.1 M HCl, 24 hour): <0.05 % of Total
- Impurity peak area, RRT 0.83 (0.1 M HCl, 24 hour): 0.11 % of Total
- Impurity peak area, RRT 0.85 (0.1 M HCl, 24 hour): 0.07 % of Total
- Impurity peak area, RRT 0.92 (0.1 M HCl, 24 hour): 0.09 % of Total
- Impurity peak area, RRT 0.62 [1]: <0.05 % of Total and 0.05 % of Total
- Impurity peak area, RRT 0.84* [1]: 0.27 % of Total and 0.34 % of Total
- Impurity peak area, RRT 0.86^$ (PDA spectra unrelated to the active ingredient) [1]: <0.05 % of Total and 0.05 % of Total
- Impurity peak area, RRT 0.98* (first row) [1]: 0.24 % of Total and 0.22 % of Total
- Impurity peak area, RRT 0.98* (second row) [1]: 0.12 % of Total and 0.13 % of Total
- Impurity peak area, RRT 1.04* [1]: 0.05 % of Total and <0.05 % of Total
- Impurity peak area, RRT 1.23* [1]: 0.16 % of Total and 0.15 % of Total
- Impurity peak area, RRT 1.24* [1]: <0.05 % of Total and 0.05 % of Total
- Impurity peak area, RRT 1.35* [1]: 0.07 % of Total and 0.06 % of Total
- Impurity peak area, RRT 1.36* [1]: <0.05 % of Total and 0.05 % of Total
- Impurity peak area, Total [1]: 1.00 % of Total and 1.44 % of Total
- Impurity peak area, Total excluding artifact [1]: 1.00 % of Total and 1.16 % of Total
- Assay (as % of nominal), Mean (0.1M HCl, 24 hours ambient): 106.7 % of nominal
- Assay (as % of nominal) (0.1M HCl, 24 hours ambient, listed as active ingredient): 107.7 % of nominal and 105.4 % of nominal
- Assay (as % of nominal), Mean (0.1 M HCl, Initial): 114.4 % of nominal
- Impurity peak area, RRT 0.41 (0.1 M HCl, Initial): <0.05 % of Total
- Impurity peak area, RRT 0.98* (first row) (0.1 M HCl, Initial): 0.22 % of Total
- Impurity peak area, RRT 0.98* (second row) (0.1 M HCl, Initial): 0.12 % of Total
- Impurity peak area, RRT 1.04* (0.1 M HCl, Initial): <0.05 % of Total
- Impurity peak area, RRT 1.24* (0.1 M HCl, Initial): <0.05 % of Total
- Impurity peak area, RRT 0.38 [2]: 0.10 % of Total and 0.08 % of Total
- Impurity peak area, RRT 0.61 [2]: 0.13 % of Total and 0.08 % of Total
- Impurity peak area, RRT 0.62 [2]: 0.15 % of Total and 0.09 % of Total
- Impurity peak area, RRT 0.84* [2]: 0.31 % of Total and 0.26 % of Total
- Impurity peak area, RRT 0.85 [2]: <0.05 % of Total and 0.08 % of Total
- Impurity peak area, RRT 0.92 [2]: 0.18 % of Total and 0.14 % of Total
- Impurity peak area, RRT 1.23* [2]: 0.22 % of Total and 0.23 % of Total
- Impurity peak area, RRT 1.35* [2]: 0.05 % of Total and 0.06 % of Total
- Impurity peak area, RRT 1.36* [2]: 0.05 % of Total and 0.06 % of Total
- Impurity peak area, Total [2]: 2.00 % of Total and 1.47 % of Total
- Impurity peak area, Total excluding artifact [2]: 1.15 % of Total and 1.17 % of Total
- Assay (as % of nominal) (0.1M HCl, Initial, listed as active ingredient): 100.6 % of nominal and 127.9 % of nominal
- Impurity peak area, RRT 0.41 (5% SLS aq., 24 hour): <0.05 % of Total
- Impurity peak area, RRT 0.62 (5% SLS aq., 24 hour): 0.08 % of Total
- Impurity peak area, RRT 0.85 (5% SLS aq., 24 hour): NBD
- Impurity peak area, RRT 0.92 (5% SLS aq., 24 hour): 0.05 % of Total
- Impurity peak area, RRT 0.98* (first row) (5% SLS aq., 24 hour): 0.24 % of Total
- Impurity peak area, RRT 1.04* (5% SLS aq., 24 hour): 0.06 % of Total
- Impurity peak area, RRT 1.24* (5% SLS aq., 24 hour): <0.05 % of Total
- Impurity peak area, RRT 1.36* (5% SLS aq., 24 hour): <0.05 % of Total
- Impurity peak area, RRT 0.38 [3]: 0.10 % of Total and 0.07 % of Total
- Impurity peak area, RRT 0.61 [3]: 0.07 % of Total and 0.06 % of Total
- Impurity peak area, RRT 0.83 [3]: 0.30 % of Total and 0.16 % of Total
- Impurity peak area, RRT 0.84* [3]: 0.32 % of Total and 0.30 % of Total
- Impurity peak area, RRT 0.86^$ (PDA spectra unrelated to the active ingredient) [3]: 0.05 % of Total and 0.07 % of Total
- Impurity peak area, RRT 0.98* (second row) [3]: 0.13 % of Total and 0.12 % of Total
- Impurity peak area, RRT 1.23* [3]: 0.06 % of Total and 0.07 % of Total
- Impurity peak area, RRT 1.35* [3]: 0.07 % of Total and 0.06 % of Total
- Impurity peak area, Total [3]: 1.53 % of Total and 1.34 % of Total
- Impurity peak area, Total excluding artifact [3]: 0.93 % of Total and 0.90 % of Total
- Assay (as % of nominal), Mean (5% SLS aq., 24 hours ambient): 100.8 % of nominal
- Assay (as % of nominal) (5% SLS aq., 24 hours ambient, listed as active ingredient): 99.4 % of nominal and 102.3 % of nominal
- Assay (as % of nominal), Mean (5% SLS aq., Initial): 103.3 % of nominal
- Impurity peak area, RRT 0.84* (5% SLS aq., Initial): 0.32 % of Total
- Impurity peak area, RRT 0.86^$ (PDA spectra unrelated to the active ingredient) (5% SLS aq., Initial): <0.05 % of Total
- Impurity peak area, RRT 0.98* (first row) (5% SLS aq., Initial): 0.24 % of Total
- Impurity peak area, RRT 0.98* (second row) (5% SLS aq., Initial): 0.12 % of Total
- Impurity peak area, RRT 1.24* (5% SLS aq., Initial): <0.05 % of Total
- Impurity peak area, RRT 1.36* (5% SLS aq., Initial): 0.05 % of Total
- Impurity peak area, RRT 0.92 [4]: 0.05 % of Total and <0.05 % of Total
- Impurity peak area, RRT 1.04* [4]: 0.05 % of Total and <0.05 % of Total
- Impurity peak area, RRT 1.23* [4]: 0.06 % of Total and 0.07 % of Total
- Impurity peak area, RRT 1.35* [4]: 0.07 % of Total and 0.08 % of Total
